The record followed here is PMC10728895, “Stapled Phd Peptides Inhibit Doc Toxin Induced Growth Arrest in Salmonella” (ACS Chemical Biology, 2023).

Positions of bridges follow the written chain, without caps; N, C: chain ends. Non-standard residues stand in square brackets, D forms with d. Residues, ends and D or L forms follow the SMILES beside them. S5 = C=CCCC[C@](C)(N)C(=O)O; Nle = CCCC[C@H](N)C(=O)O

In assay [1] the test system is DocSTm (phosphorylation of EF-TuSTm). The assay can be described thus: Dot blot EF-Tu phosphorylation assay. It is filed as biochemical, Salmonella Typhimurium. Particulars: DocSTm 1 μM, EF-TuSTm 3 μM, peptide 10 μM to 5 nM (3-fold dilutions), 16 h RT, dot blot anti-phosphothreonine; compared at three times the DocSTm concentration; two independent experiments. How it is done:
Samples were prepared in assay buffer [50 mM HEPES (pH 7.5), 25 mM (NH4)2SO4, 2 mM TCEP, 2 mM MgCl2, and 1 mM ATP] with a final concentration of recombinant Doc at 1 μM, recombinant EF-Tu at 3 μM, and varying concentrations of synthetic Phd peptides (final concentrations: 10 μM to 5 nM). EF-Tu (3 μM) in assay buffer was used as a negative control (no Doc and Phd peptide), while EF-Tu (3 μM) with Doc (1 μM) in assay buffer was used as a positive control (no Doc inhibitor). The final sample volume was 10 μL. Samples were incubated for 16 h at RT and subsequently spotted on a nitrocellulose membrane. Phosphorylated EF-Tu was detected by immunodecoration using a rabbit monoclonal antiphosphothreonine antibody (Abcam, ab218195) at 1:2000 dilution (1 h at 4 °C), followed by incubation with a goat antirabbit IgG (H + L) HRP conjugate antibody (Advansta) at 1:10,000 dilution (1 h at RT). Chemiluminescence was developed using the HRP Luminata Kit (Merck, WBLUR0100) and captured with an ImageQuant LAS4000 Western blot imaging system (GE HealthCare). Each peptide was tested in two independent experiments.

For a further assay, the system named is DocSTm toxin. Particulars: DocSTm 5 μM, peptide 50 μM; for Average Tm of DocSTm in the presence of peptide: pH 8.0, average ± SD, replicates 3-48 (Table S3). The procedure:
The thermal shift assay was performed using a Mx3005P qPCR System (Agilent) collecting fluorescence data with a temperature ramp of 25 to 95 °C. Samples were prepared in a buffer containing 20 mM K2HPO4 and 50 mM (NH4)2SO4 at pH 8.0, with a final concentration of recombinant Doc protein at 5 μM and Phd peptides at 50 μM. SYPRO Orange dye (Sigma-Aldrich, 5000X stock in DMSO) was used to monitor protein denaturation in a final concentration of 3×. The final sample volume was 20 μL. Each condition was prepared in triplicate in each independent experiment. The melting curves were plotted using GraphPad Prism 9 (GraphPad Software, USA), and the melting temperatures were obtained by fitting the sigmoidal section of the curves to a Boltzmann sigmoid function. For the calculation of thermal shifts ΔTm, the average melting temperature of free DocSTm toxin as determined in the respective peptide measurement cycles was subtracted from the average melting temperature of DocSTm in the presence of the peptide (Table S3).

For `CCCC[C@H](NC(=O)[C@H](Cc1c[nH]c2ccccc12)NC(C)=O)C(=O)N[C@@H](CCCNC(=N)N)C(=O)N[C@@H](CC(=O)O)C(=O)N[C@@H](CCC(=O)O)C(=O)N[C@@H](Cc1ccccc1)C(=O)N[C@@H](C)C(=O)N[C@@H](C)C(=O)N[C@H](C(=O)N[C@@H](CCCC)C(=O)N[C@@H](CCCNC(=N)N)C(=O)N[C@H](C(=O)N[C@@H](Cc1c[nH]cn1)C(=O)NCC(=O)N[C@@]1(C)CCCC=CCCC[C@@](C)(C(=O)N[C@@H](CC(C)C)C(=O)N[C@@H](C)C(=O)N[C@@H](CC(=O)O)C(=O)N[C@@H](CCCCN)C(=O)O)NC(=O)[C@H](CCCNC(=N)N)NC(=O)[C@H](CC(C)C)NC(=O)[C@H](CCC(=O)O)NC1=O)C(C)C)[C@@H](C)CC` [Peptide 18] (Ac-W[Nle]RDEFAAI[Nle]RVHG[S5]ELR[S5]LADK-OH; staple 15-19), the “Inhibition of EF-TuSTm phosphorylation by DocSTm (concentration needed for full inhibition)” value (shortened to “Inhibition of EF-TuSTm phosphorylation”) in assay [1] is reported as “required a higher concentration to achieve full inhibition”. The “Average Tm of DocSTm in the presence of peptide” value (“Average Tm of DocSTm” below) in the assay with DocSTm toxin came out at 66.3 ± 0.2 °C.

Regarding `CCCC[C@H](NC(=O)[C@H](Cc1c[nH]c2ccccc12)NC(C)=O)C(=O)N[C@@H](CCCNC(=N)N)C(=O)N[C@@H](CC(=O)O)C(=O)N[C@@H](CCC(=O)O)C(=O)N[C@@H](Cc1ccccc1)C(=O)N[C@@H](CCCNC(=N)N)C(=O)N[C@@H](C)C(=O)N[C@H](C(=O)N[C@@H](CCCC)C(=O)N[C@@H](CCCNC(=N)N)C(=O)N[C@H](C(=O)N[C@@H](Cc1c[nH]cn1)C(=O)NCC(=O)N[C@@]1(C)CCCC=CCCC[C@@](C)(C(=O)N[C@@H](CC(C)C)C(=O)N[C@@H](C)C(=O)N[C@@H](CC(=O)O)C(=O)N[C@@H](CCCCN)C(=O)O)NC(=O)[C@H](CCCNC(=N)N)NC(=O)[C@H](CC(C)C)NC(=O)[C@H](CCC(=O)O)NC1=O)C(C)C)[C@@H](C)CC` [Peptide 21] (Ac-W[Nle]RDEFRAI[Nle]RVHG[S5]ELR[S5]LADK-OH; staple 15-19), in assay [1], the “Inhibition of EF-TuSTm phosphorylation” value was “required a higher concentration to achieve full inhibition”. Moreover, in the assay on DocSTm toxin, the “Average Tm of DocSTm” value is 61.1 ± 2.5 °C.

For `CCCC[C@H](NC(=O)[C@H](Cc1c[nH]c2ccccc12)NC(C)=O)C(=O)N[C@@H](CCCNC(=N)N)C(=O)N[C@@]1(C)CCCC=CCCC[C@@](C)(C(=O)N[C@H](C(=O)N[C@@H](CCCC)C(=O)N[C@@H](CCCNC(=N)N)C(=O)N[C@H](C(=O)N[C@@H](Cc2c[nH]cn2)C(=O)NCC(=O)N[C@@H](CC(N)=O)C(=O)N[C@@H](CCC(=O)O)C(=O)N[C@@H](CC(C)C)C(=O)N[C@@H](CCCNC(=N)N)C(=O)N[C@@H](CCC(=O)O)C(=O)N[C@@H](CC(C)C)C(=O)N[C@@H](C)C(=O)N[C@@H](CC(=O)O)C(=O)N[C@@H](CCCCN)C(=O)O)C(C)C)[C@@H](C)CC)NC(=O)[C@H](C)NC(=O)[C@H](Cc2ccccc2)NC(=O)[C@H](CCC(=O)O)NC1=O` [Peptide 17] (Ac-W[Nle]R[S5]EFA[S5]I[Nle]RVHGNELRELADK-OH; staple 4-8), the “Inhibition of EF-TuSTm phosphorylation” value in assay [1] is “required a higher concentration to achieve full inhibition”. In the assay with DocSTm toxin, the “Average Tm of DocSTm” value came to 61.3 ± 0.3 °C.

For the compound `CCCC[C@H](NC(=O)[C@H](Cc1c[nH]c2ccccc12)NC(C)=O)C(=O)N[C@@H](CC(N)=O)C(=O)N[C@@H](CC(N)=O)C(=O)N[C@@H](CCC(=O)O)C(=O)N[C@@H](Cc1ccccc1)C(=O)N[C@@H](C)C(=O)N[C@@H](C)C(=O)N[C@H](C(=O)N[C@@H](CCCC)C(=O)N[C@@H](C)C(=O)N[C@H](C(=O)N[C@@H](Cc1c[nH]cn1)C(=O)NCC(=O)N[C@@H](CCCNC(=N)N)C(=O)N[C@@H](CCC(N)=O)C(=O)N[C@@H](CC(C)C)C(=O)N[C@@H](CCCNC(=N)N)C(=O)N[C@@H](CCCNC(=N)N)C(=O)N[C@@H](CC(C)C)C(=O)N[C@@H](C)C(=O)N[C@@H](CCCNC(=N)N)C(=O)N[C@@H](CCCCN)C(=O)O)C(C)C)[C@@H](C)CC` [Peptide 33] (Ac-W[Nle]NNEFAAI[Nle]AVHGRQLRRLARK-OH), the “Inhibition of EF-TuSTm phosphorylation” value in assay [1] is listed as “higher than three times the DocSTm concentration”. Besides, the “Average Tm of DocSTm” value in the assay on DocSTm toxin amounted to 63.0 ± 0.8 °C.

On to `CCCC[C@H](NC(=O)[C@H](Cc1c[nH]c2ccccc12)NC(C)=O)C(=O)N[C@@H](CCCNC(=N)N)C(=O)N[C@@H](CC(=O)O)C(=O)N[C@@H](CCC(=O)O)C(=O)N[C@@H](Cc1ccccc1)C(=O)N[C@@H](C)C(=O)N[C@@H](C)C(=O)N[C@H](C(=O)N[C@@H](CCCC)C(=O)N[C@@H](CCCNC(=N)N)C(=O)N[C@H](C(=O)N[C@@H](Cc1c[nH]cn1)C(=O)NCC(=O)N[C@@H](CC(N)=O)C(=O)N[C@@H](CCC(=O)O)C(=O)N[C@@H](CC(C)C)C(=O)N[C@@H](CCCNC(=N)N)C(=O)N[C@@H](CCC(=O)O)C(=O)N[C@@H](CC(C)C)C(=O)N[C@@H](C)C(=O)N[C@@H](CC(=O)O)C(=O)N[C@@H](CCCCN)C(=O)O)C(C)C)[C@@H](C)CC` [Peptide 16] (Ac-W[Nle]RDEFAAI[Nle]RVHGNELRELADK-OH), for which the “Inhibition of EF-TuSTm phosphorylation” value in assay [1] was “fully inhibited”. In the assay on DocSTm toxin, the “Average Tm of DocSTm” value was found to be 65.0 ± 0.4 °C.

In the case of `CCCC[C@H](NC(=O)[C@H](Cc1c[nH]c2ccccc12)NC(C)=O)C(=O)N[C@@H](CCCNC(=N)N)C(=O)N[C@@]1(C)CCCC=CCCC[C@@](C)(C(=O)N[C@H](C(=O)N[C@@H](CCCC)C(=O)N[C@@H](CCCNC(=N)N)C(=O)N[C@H](C(=O)N[C@@H](Cc2c[nH]cn2)C(=O)NCC(=O)N[C@@H](CC(N)=O)C(=O)N[C@@H](CCC(=O)O)C(=O)N[C@@H](CC(C)C)C(=O)N[C@@H](CCCNC(=N)N)C(=O)N[C@@H](CCC(=O)O)C(=O)N[C@@H](CC(C)C)C(=O)N[C@@H](C)C(=O)N[C@@H](CC(=O)O)C(=O)N[C@@H](CCCCN)C(=O)O)C(C)C)[C@@H](C)CC)NC(=O)[C@H](CCCNC(=N)N)NC(=O)[C@H](Cc2ccccc2)NC(=O)[C@H](CCC(=O)O)NC1=O` [Peptide 20] (Ac-W[Nle]R[S5]EFR[S5]I[Nle]RVHGNELRELADK-OH; staple 4-8), the “Inhibition of EF-TuSTm phosphorylation” value in assay [1] was “required a higher concentration to achieve full inhibition”. In addition, the “Average Tm of DocSTm” value in the assay with DocSTm toxin was 60.4 ± 0.4 °C.

Regarding `CCCC[C@H](NC(=O)[C@H](Cc1c[nH]c2ccccc12)NC(C)=O)C(=O)N[C@@H](CC(=O)O)C(=O)N[C@@H](CC(=O)O)C(=O)N[C@@H](CCC(=O)O)C(=O)N[C@@H](Cc1ccccc1)C(=O)N[C@@H](C)C(=O)N[C@@H](C)C(=O)N[C@H](C(=O)N[C@@H](CCCC)C(=O)N[C@@H](C)C(=O)N[C@H](C(=O)N[C@@H](Cc1c[nH]cn1)C(=O)NCC(=O)N[C@@H](CCCNC(=N)N)C(=O)N[C@@H](CCC(=O)O)C(=O)N[C@@H](CC(C)C)C(=O)N[C@@H](CCCNC(=N)N)C(=O)N[C@@H](CCC(=O)O)C(=O)N[C@@H](CC(C)C)C(=O)N[C@@H](C)C(=O)N[C@@H](CC(=O)O)C(=O)N[C@@H](CCCCN)C(=O)O)C(C)C)[C@@H](C)CC` [Peptide 9] (Ac-W[Nle]DDEFAAI[Nle]AVHGRELRELADK-OH), in the assay with DocSTm toxin, the “Average Tm of DocSTm” value is 72.3 ± 0.4 °C.

Turning to `CCCC[C@H](NC(=O)[C@H](Cc1c[nH]c2ccccc12)NC(C)=O)C(=O)N[C@@H](CCCNC(=N)N)C(=O)N[C@@H](CCCNC(=N)N)C(=O)N[C@@H](CCC(=O)O)C(=O)N[C@@H](Cc1ccccc1)C(=O)N[C@@H](CCCNC(=N)N)C(=O)N[C@@H](CCCNC(=N)N)C(=O)N[C@H](C(=O)N[C@@H](CCCC)C(=O)N[C@@H](CCCNC(=N)N)C(=O)N[C@H](C(=O)N[C@@H](Cc1c[nH]cn1)C(=O)NCC(=O)N[C@@H](CCCNC(=N)N)C(=O)N[C@@H](CCC(=O)O)C(=O)N[C@@H](CC(C)C)C(=O)N[C@@H](CCCNC(=N)N)C(=O)N[C@@H](CCC(=O)O)C(=O)N[C@@H](CC(C)C)C(=O)N[C@@H](C)C(=O)N[C@@H](CC(=O)O)C(=O)N[C@@H](CCCCN)C(=O)O)C(C)C)[C@@H](C)CC` [Peptide 15] (Ac-W[Nle]RREFRRI[Nle]RVHGRELRELADK-OH), the “ΔTm (thermal shift) of DocSTm in the presence of peptide” value in the assay with DocSTm toxin (SYPRO Orange 3×, 20 mM K2HPO4, 50 mM (NH4)2SO4, pH 8.0, average Tm with peptide minus average Tm of free DocSTm, mean ± SD) is 11–13 °C. For the same compound, in the assay with DocSTm toxin, the “Average Tm of DocSTm” value was found to be 57.8 ± 0.7 °C.
